Values quoted from earlier work, collected in US20250339390A1 (priority 2018, published 2025).

**Q.** Which solubility in water does the source give for `O=NN(CCCl)C(=O)NCCCl` [Carmustine, 1,3-bis(2-chloroethyl)-1-nitrosourea] here?
**A.** poorly soluble
